“Also recorded” adds a separate entry of the source.
Tests used:
Type in all cases: in vivo
[1] = tested on: C. elegans; experiment: Lifespan of adult worms (C. elegans); conditions: P<0.0001 (log-rank test) vs vehicle
[2] = tested on: 6-week old C57/B6 mice; experiment: Topical treatment of shaved dorsal skin of young mice: pigmentation and hair growth; conditions: 16 mM in Transdermal Gel, topical every other day, vs control
Method: Mice were topically (unless indicated otherwise) treated every other day with the indicated amount and photos were taken every week. Mice were monitored for the appearance of skin pigmentation, signaling the initiation of anagen. No hair growth (and no pigmentation) was assigned the arbitrary value of 0. Skin darkening was given a value from 0 to 100%, with the higher number indicating darker skin and visible hair growth.
Compounds were dissolved in Transdermal Gel at 16 mM and applied on mice dorsal skin every other day. To show the pigmentation progression, the appearance of skin pigmentation, signaling the initiation of anagen, was assigned an arbitrary value based on skin darkening. No hair growth (and no pigmentation) was assigned a value of 0 and darker skin/visible hair growth was assigned with higher numbers. Photos were taken weekly to document the pigmentation/hair changes.
Dorsal hair was shaved by trimmer at Week 7 and α-KB acid was dissolved in Transdermal Gel at 16 mM and applied on mice dorsal skin every other day.

[3] = tested on: 101-week old C57BL/6J mice; experiment: Oral α-KB in drinking water in aged mice: survival, aging traits, hair
Method: (§1) Additionally, α-KG was administrated in drinking water to 6-week old C57/B6 mice for 10 weeks. α-KG was dissolved at 16 mM and water was changed every other day to ensure the integrity of the compound. Oral administration of α-KB was tested in 101-week old C57/B6 mice and lasted for 30 weeks. The concentration of α-KB was 8 mM and water was changed weekly. Pigmentation/hair changes were also monitored by assigning arbitrary values and photos.
Based on the lifespan extending effects of α-KB in C. elegans (FIG. 2), the anti-aging properties in mice were examined. Aged 101-week old C57BL/6J mice were treated with 8 mM α-KB acid dissolved in drinking water for up to 30 weeks.

[4] = tested on: 6-week old C57/B6 mice; experiment: Oral α-KG in drinking water in young mice: hair growth; conditions: 16 mM in drinking water, 10 weeks, vs negative controls
Method: as §1

Structure (SMILES) | mean lifespan (days of adulthood) [1] | hair growth [2] | skin pigmentation (initiation of anagen) [2] | aging traits (such as cataracts) ([3]; aged mice, 8 mM in drinking water) | age-related hair loss / hair pigmentation and density on dorsal skin ([3]; aged mice, not shaved, 8 mM in drinking water, vs control) | lifespan / survival of old male mice ([3]; old male C57BL/6J mice, 8 mM in drinking water from 101 weeks for up to 30 weeks, P=0.0476 (Fisher's exact test)) | hair growth after oral administration [4]
CC[C@H](O)C(=O)O [2-HB, 2-hydroxybutyrate] | 19.8 days of adulthood | had hair growing back faster; also recorded: accelerated pigmentation and hair growth on Day 14 | showed pigmentation earlier; also recorded: pigmentation improved; also recorded: accelerated pigmentation |  |  |  | 
CCC(=O)C(=O)O [α-KB, alpha-ketobutyrate] | 22.4 days of adulthood | hair growth was accelerated; also recorded: stimulates hair growth by Day 14 | started to show pigmentation patches after one week; also recorded: improved pigmentation | prevented aging traits in aged mice | exhibited black and thick hair; also recorded: delays or reduces age-related hair loss | significantly increased survival to beyond 131 weeks of age in male animals; also recorded: increases the lifespan of old male C57BL/6J mice | 
O=C(O)CCC(=O)C(=O)O [α-KG, alpha-ketoglutarate] | 26.1 days of adulthood |  |  |  |  |  | confirmed its effects for hair growth; also recorded: significantly induces hair growth
